# Values of other authors, collected in patent US20150157714A1, “IMPLEMENTATION OF NON-PATHOGENIC BIOLUMINESCENT BACTERIA AS A SUB-MICRON LIGHT EMITTING SOURCE FOR PHOTO-DYNAMIC THERAPY IN THE LUNGS” (priority 2013, published 2015).
# Tested on: not given
# Settings: absorption spectra wavelengths for photochemical interactions
row,Compound,Spectral Absorption Ranges and Peaks
1,CCOC(=O)C1=Cc2c3nc(cc4nc(cc5[n-]c(cc6[n-]c2c(C)c6CC)c(C)c5CC)C(C)=C4CC)[C@@H](C)[C@]13CC.[Cl-].[Cl-].[Sn] (racemic) [Tin etiopurpurin],660 nm
2,Cc1c(C(=O)O)c(O)cc2c1C(=O)c1c(O)c(C3O[C@H](CO)[C@@H](O)[C@H](O)[C@H]3O)c(O)c(O)c1C2=O (stereo in doubt) [Carmine],500-570 nm
3,NCC(=O)CCC(=O)O [ALA],635 nm
4,COc1cc(S(=O)(=O)[O-])c(C)cc1N=Nc1c(O)ccc2cc(S(=O)(=O)[O-])ccc12.[Na+].[Na+] [Allura Red AC],504 nm
5,CNc1ccc2nc3ccc(N)cc3[s+]c2c1.[Cl-] [Azure C],580-640 nm
6,CC1=C(/C=C/C(C)=C/C=C/C(C)=C/C=C/C=C(C)/C=C/C=C(C)/C=C/C2=C(C)CCCC2(C)C)C(C)(C)CCC1 [Beta carotene],470 nm
7,O=S(=O)([O-])c1cc(S(=O)(=O)[O-])c2c(N=Nc3ccc(S(=O)(=O)[O-])c4ccccc34)c(O)ccc2c1.[Na+].[Na+].[Na+] [Brilliant Scarlet 4R],503 nm
8,O=S(=O)([O-])c1ccc(N=Nc2cc(S(=O)(=O)[O-])c3ccccc3c2O)c2ccccc12.[Na+].[Na+] [Carmoisine azorubine],515 nm
9,O=S(=O)([O-])c1ccc(/N=N/c2cc(S(=O)(=O)[O-])c3ccccc3c2O)c2ccccc12.[Na+].[Na+] [Chromotrope FB],512 nm
10,Nc1c(/N=N/c2ccc(-c3ccc(/N=N/c4cc(S(=O)(=O)O)c5ccccc5c4N)cc3)cc2)cc(S(=O)(=O)O)c2ccccc12 [Congo Red],400-560 nm
11,CN(C)c1ccc(C(=C2C=CC(=[N+](C)C)C=C2)c2ccc(N(C)C)cc2)cc1 [Crystal Violet],550-610 nm
12,CC(=O)Nc1ccc2nc3c4ccccc4c(=N)cc-3oc2c1.Cl [Darrow Red],450-550 nm
13,O=C([O-])c1ccccc1-c1c2cc(Br)c(=O)c(Br)c-2oc2c(Br)c([O-])c(Br)cc12.[Na+].[Na+] [Eosin Y],490-530 nm
14,CCN(Cc1cccc(S(=O)(=O)[O-])c1)c1ccc(C(=C2C=CC(=[N+](CC)Cc3cccc(S(=O)(=O)[O-])c3)C=C2)c2ccccc2S(=O)(=O)[O-])cc1.[Na+].[Na+] [Erioglaucine disodium salt],629 nm
15,O.O=C([O-])c1ccccc1-c1c2cc(I)c(=O)c(I)c-2oc2c(I)c([O-])c(I)cc12.[Na+].[Na+] [Erythrosin B],510-540 nm
16,CCOC(=O)c1ccccc1-c1c2cc(Br)c(=O)c(Br)c-2oc2c(Br)c([O-])c(Br)cc12.[K+] [Ethyl Eosin],530-550 nm
17,CCN(Cc1cccc(S(=O)(=O)[O-])c1)c1ccc(C(=C2C=CC(=[N+](CC)Cc3cccc(S(=O)(=O)[O-])c3)C=C2)c2ccc(O)cc2S(=O)(=O)[O-])cc1.[Na+].[Na+] [Fast Green],560+ nm
18,O=C1/C(=C2\Nc3ccc(S(=O)(=O)[O-])cc3C2=O)Nc2ccc(S(=O)(=O)[O-])cc21.[Na+].[Na+] [Indigo Carmine],608 nm
19,CCN(Cc1cccc(S(=O)(=O)O)c1)c1ccc(C(=C2C=CC(=[N+](CC)Cc3cccc(S(=O)(=O)O)c3)C=C2)c2ccc(S(=O)(=O)O)cc2)cc1.[Na+].[Na+] [Light Green SF],590+ nm
20,CN(C)c1ccc(C(=C2C=CC(=[N+](C)C)C=C2)c2c(O)c(S(=O)(=O)[O-])cc3cc(S(=O)(=O)[O-])ccc23)cc1.[Na+] [Lissamine green],633 nm
21,CC(C)=CCC/C(C)=C/C=C/C(C)=C/C=C/C(C)=C/C=C/C=C(C)/C=C/C=C(C)/C=C/C=C(\C)CCC=C(C)C [Lycopene],530 nm
22,CN(C)c1ccc(C(=C2C=CC(=[N+](C)C)C=C2)c2ccc([N+](C)(C)C)cc2)cc1.[Cl-].[Cl-] [Methyl Green],560+ nm
23,CN(C)c1ccc2nc3ccc(=[N+](C)C)cc-3sc2c1 [Methylene Blue],590+ nm
24,Cc1cc2nc3ccc(N(C)C)cc3nc2cc1N.Cl [Neutral Red],480-570 nm
25,O=S(=O)([O-])c1cc(S(=O)(=O)[O-])c2c(N=Nc3ccc(S(=O)(=O)[O-])c4ccccc34)c(O)ccc2c1.[Na+].[Na+].[Na+] [New Coccine],506 nm
26,Nc1c(O)c(S(=O)(=O)[O-])c(O)c2c1C(=O)c1ccccc1C2=O.[Na+] [Nuclear Fast Red],460-550 nm

row,Compound,Spectral Absorption Ranges and Peaks
1,O=S(=O)(O)c1cc(S(=O)(=O)O)c2c(/N=N/c3ccccc3)c(O)ccc2c1 [Orange G],450-510 nm
2,O=C([O-])c1c(Cl)c(Cl)c(Cl)c(Cl)c1-c1c2cc(Br)c(=O)c(Br)c-2oc2c(Br)c([O-])c(Br)cc12.[Na+].[Na+] [Phloxine B],520+ nm
3,Cc1cc2nc3c(=O)[nH]c(=O)nc-3n(C[C@H](O)[C@H](O)[C@H](O)COP(=O)([O-])O)c2cc1C.[Na+] [Riboflavin 5′-monophosphate sodium salt],441 nm
4,O=C([O-])c1c(Cl)c(Cl)c(Cl)c(Cl)c1-c1c2cc(I)c(=O)c(I)c-2oc2c(I)c([O-])c(I)cc12.[Na+].[Na+] [Rose bengal],548 nm
5,Cc1cc2nc3cc(C)c(N)cc3[n+](-c3ccccc3)c2cc1N.[Cl-] [Safranin O],470-550 nm
6,"CCOC(=O)C1=Cc2c3nc(cc4nc(cc5[n-]c(cc6[n-]c2c(C)c6CC)c(C)c5CC)C(C)=C4CC)[C@@H](C)[C@]13CC.[Cl-].[Cl-].[Sn] [SnEt2 (Purlytin), SnEt2]",660 nm
7,Cc1ccccc1/N=N/c1ccc(/N=N/c2c(O)ccc3ccccc23)c(C)c1 [Sudan IV],470-580 nm
8,"C=Cc1c(C)c2cc3nc(c(CC(=O)N[C@@H](CC(=O)O)C(=O)O)c4[nH]c(cc5nc(cc1[nH]2)C(C)=C5CC)c(C)c4C(=O)O)[C@@H](CCC(=O)O)[C@@H]3C [Talaporfin (LS11, MACE, Npe6), Talaporfin]",660 nm
9,O=C([O-])C1=NN(c2ccc(S(=O)(=O)[O-])cc2)C(=O)C1N=Nc1ccc(S(=O)(=O)[O-])cc1.[Na+].[Na+].[Na+] (stereo not drawn) [Tartrazine],400-460 nm
10,Cc1cc2nc3ccc(N(C)C)cc3[s+]c2cc1N.[Cl-] [Toluidine Blue],560+ nm
11,Cc1cc(-c2ccc(/N=N/c3c(S(=O)(=O)O)cc4cc(S(=O)(=O)O)cc(N)c4c3O)c(C)c2)ccc1/N=N/c1c(S(=O)(=O)O)cc2cc(S(=O)(=O)O)cc(N)c2c1O [Trypan Blue],500+ nm
12,Acid Fuchsin,530-560 nm
13,Aniline Blue,550-620 nm
14,Azure B,580+ nm
15,BPD-ma,689 nm
16,Basic Fuchsin,520-570 nm
17,Brilliant Cresyl Blue,550+ nm
18,HPPH,665 nm
19,Luxol Fast Blue,500-640 nm
20,Mono-N-Aspartyl Chlorin e6,664 nm
21,"Nickel 5,10-bis-acrylate etioporphyrin I",580 nm
22,Phthalocyanine-4,670 nm
23,Silicon phthalocyanine [Silicon phthalocyanine (Pc4)],675 nm
24,Sudan Red,450-590 nm
25,Taporfin Sodium,664 nm
26,Verteporfin,690 nm

# Same assay, conditions: visible light absorption peaks named in text
row,Compound,absorption peak [nm]
1,C=Cc1c(C)c2cc3nc(c(CC(=O)O)c4[nH]c(cc5nc(cc1[nH]2)C(C)=C5CC)c(C)c4C(=O)O)[C@@H](CCC(=O)O)[C@@H]3C [Chlorin e6],410
2,Si(IV)-naphthocyanine,773

# Tested on: multi-drug resistant Pseudomonas aeruginosa (Gram −) isolates
# Settings: 60 different multi-drug resistant isolates
row,Compound,reduction of isolates with PDT
1,Cc1cc2nc3ccc(N(C)C)cc3[s+]c2cc1N.[Cl-] [Toluidine Blue],significantly reduced

# Tested on: methicillin-resistant Staphylococcus aureus (MRSA)
# Settings: with 632.8 nm light
row,Compound,eradication of MRSA
1,Cc1cc2nc3ccc(N(C)C)cc3[s+]c2cc1N.[Cl-] [Toluidine Blue],eradicate

# Tested on: Multidrug-resistant Pseudomonas aeruginosa
# Settings: 635 nm light
row,Compound,susceptibility to photosensitizer and light
1,CN(C)c1ccc2nc3ccc(=[N+](C)C)cc-3sc2c1 [Methylene Blue],susceptibility

# Tested on: not given
# Settings: FIG. 1, representative spectral curve
Compound,spectral curve runs to wavelength,spectral curve starts at wavelength,spectral peak of emitted light
Mutated Firefly luciferase S284T: mutated firefly luciferase S284T,about 720 nm,about 520 nm,about 630 nm
"Wild-type Firefly luciferase (FFluc): Wild-type Firefly luciferase from Photinus pyralis, uses D-luciferin, ATP dependent",about 680 nm,about 460 nm,about 557 nm
